This is an account of results in patent US11884682B2, “Compounds and their uses as MIF inhibitors” (NANJING IMMUNOPHAGE BIOTECH CO., LTD., priority 2020, dated 2024).

MIF, sequence (P14174 2-115): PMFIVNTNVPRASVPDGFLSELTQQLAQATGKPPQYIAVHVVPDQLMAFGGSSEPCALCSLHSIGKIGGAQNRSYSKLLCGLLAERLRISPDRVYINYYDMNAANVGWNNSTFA

The first test addresses MIF (Homo sapiens (Human), UniProt P14174). The experiment in a line: MIF tautomerase assay using pHPP as substrate. Format: biochemical. The note with it: cell-free, pHPP substrate 1.5 mM, MIF 3 nM; mean pIC50 of multiple test results. The protocol:
Tautomerase Assay Using pHPP as substrate
This assay measured MIF's tautomerase activity in a cell-free system and was based on the determination of initial rates of the MIF-catalyzed conversion of the ketonic into the enolic tautomer of pHPP. This was achieved by spectrophotometric quantification of the complex between borate and the product of the reaction (enolic pHPP). The substrate was prepared by conversion of the enolic pHPP into its ketonic form. To achieve this, 0.5 M pHPP in methanol was diluted 10-fold with 50 mM sodium acetate buffer at pH 6.0, and then the suspension was shaken for 24 h at room temperature in darkness, and finally stored at 4° C. for not more than 1 week, with 5 min sonication being recommended before use.
Assays were performed in small-volume clear-bottom black 96 or 384-well polystyrene plates (Greiner Bio-One). First, 2 μL of the enzyme solution containing 6 nM of MIF in DPBS, 0.025% w/v BSA, and 300 μM CHAPS was dispensed onto sample and negative control wells using Multidrop Combi with metallic tip cassettes (Thermo Fisher Scientific) previously treated with Sigmacote. Then, 2 μL of the same buffer without MIF was dispensed onto positive control wells. The reaction was started by addition of the following to all wells: 2 μL of substrate solution containing 3 mM ketonic pHPP in 200 mM boric acid, 25 mM sodium phosphate, 0.025% w/v BSA, and 300 μM CHAPS at pH 6.0. In order to remove bubbles, the plate was centrifuged in an Allegra 25R centrifuge (Beckman Coulter, Inc., Brea, CA) at 1000 rpm for 2 min at room temperature. Then, the plate was read in an EnVision. Final concentrations of enzyme and substrate were 3 nM and 1.5 mM, respectively. Initial rates were calculated for each well as the slope of the absorbance progress curve.
The data mentioned below represents a mean pIC50 value of multiple test results. It is understood that the data illustrated below may have reasonable variation depending on the specific conditions and procedures used by the person conducting the testing.
As for `COc1ccc(C(=O)Nc2nnc(-c3ccco3)o2)c(Cl)c1` [Compound 1, 2-chloro-N-(5-(furan-2-yl)-1,3,4-oxadiazol-2-yl)-4-methoxybenzamide], the “Tautomerase Inhibition pIC50” value is less than 5.

`COc1ccc(C(=O)Nc2nnc(-c3ccccc3)o2)c(OC)c1` [Compound 2, 2,4-dimethoxy-N-(5-phenyl-1,3,4-oxadiazol-2-yl)benzamide]: the “Tautomerase Inhibition pIC50” value stood at 5.07.

With `O=C(Nc1nnc(-c2ccco2)o1)[C@H]1CCN(Cc2ccccc2)C1` [Compound 3, (S)-1-benzyl-N-(5-(furan-2-yl)-1,3,4-oxadiazol-2-yl)pyrrolidine-3-carboxamide], the “Tautomerase Inhibition pIC50” value was less than 5.

In the case of `COc1ccc(C(=O)Nc2nnc(-c3ccc(O)cc3)o2)c(OC)c1` [Compound 4, N-(5-(4-hydroxyphenyl)-1,3,4-oxadiazol-2-yl)-2,4-dimethoxybenzamide], the “Tautomerase Inhibition pIC50” value is 5.58.

With `COc1ccc(C(=O)Nc2nnc(-c3ccsc3)o2)c(OC)c1` [Compound 5, 2,4-dimethoxy-N-(5-(thiophen-3-yl)-1,3,4-oxadiazol-2-yl)benzamide], the “Tautomerase Inhibition pIC50” value was 7.73.

As for `COc1ccc(C(=O)Nc2nnc(-c3sccc3C)o2)c(OC)c1` [Compound 7, 2,4-dimethoxy-N-(5-(3-methylthiophen-2-yl)-1,3,4-oxadiazol-2-yl)benzamide], the “Tautomerase Inhibition pIC50” value was less than 5.

`COc1ccc(C(=O)Nc2nnc(-c3sccc3F)o2)c(OC)c1` [Compound 8, N-(5-(3-fluorothiophen-2-yl)-1,3,4-oxadiazol-2-yl)-2,4-dimethoxybenzamide]: the “Tautomerase Inhibition pIC50” value stood at 6.54.

Regarding `CCOc1ccccc1C(=O)Nc1nnc(-c2cccs2)o1` [Compound 10, 2-ethoxy-N-(5-(thiophen-2-yl)-1,3,4-oxadiazol-2-yl)benzamide], the “Tautomerase Inhibition pIC50” value is 5.90.

On to `COC(=O)c1ccccc1C(=O)Nc1nnc(-c2cccs2)o1` [Compound 12, methyl 2-((5-(thiophen-2-yl)-1,3,4-oxadiazol-2-yl)carbamoyl)benzoate], for which the “Tautomerase Inhibition pIC50” value is less than 5.

For `O=C(Cc1ccccc1)Nc1nnc(-c2cccs2)o1` [Compound 13, 2-phenyl-N-(5-(thiophen-2-yl)-1,3,4-oxadiazol-2-yl)acetamide], the “Tautomerase Inhibition pIC50” value was less than 5.

`COc1ccc(C(=O)Nc2ccc(-c3ccco3)nn2)c(OC)c1` [Compound 14, N-(6-(furan-2-yl)pyridazin-3-yl)-2,4-dimethoxybenzamide]: the “Tautomerase Inhibition pIC50” value was found to be 5.91.

On to `COc1cc(O)ccc1C(=O)Nc1nnc(-c2cccs2)o1` [Compound 16, 4-hydroxy-2-methoxy-N-(5-(thiophen-2-yl)-1,3,4-oxadiazol-2-yl)benzamide], for which the “Tautomerase Inhibition pIC50” value came to 7.09.

Consider `COc1cc(OCCOCc2ccccc2)ccc1C(=O)Nc1nnc(-c2cccs2)o1` [Compound 18, 4-(2-(benzyloxy)ethoxy)-2-methoxy-N-(5-(thiophen-2-yl)-1,3,4-oxadiazol-2-yl)benzamide], for which the “Tautomerase Inhibition pIC50” value is given as 7.63.

As for `COc1cc(CCCC#N)ccc1C(=O)Nc1nnc(-c2cccs2)o1` [Compound 25, 4-(3-cyanopropyl)-2-methoxy-N-(5-(thiophen-2-yl)-1,3,4-oxadiazol-2-yl)benzamide], the “Tautomerase Inhibition pIC50” value turned out to be 7.68.

Take `COc1cc(CCCc2nn[nH]n2)ccc1C(=O)Nc1nnc(-c2cccs2)o1` [Compound 26, 4-(3-(2H-tetrazol-5-yl)propyl)-2-methoxy-N-(5-(thiophen-2-yl)-1,3,4-oxadiazol-2-yl)benzamide]: the “Tautomerase Inhibition pIC50” value came to 7.95.

As to `COc1cc(C2=CCC(C(=O)O)CC2)ccc1C(=O)Nc1nnc(-c2cccs2)o1` (stereo not shown) [Compound 29, 3′-methoxy-4′-((5-(thiophen-2-yl)-1,3,4-oxadiazol-2-yl)carbamoyl)-2,3,4,5-tetrahydro-[1,1′-biphenyl]-4-carboxylic acid], the “Tautomerase Inhibition pIC50” value was found to be 8.14.

On to `COc1cc(N2CCCC2C(=O)O)ccc1C(=O)Nc1nnc(-c2cccs2)o1` (stereo not shown) [Compound 30, (3-methoxy-4-((5-(thiophen-2-yl)-1,3,4-oxadiazol-2-yl)carbamoyl)phenyl)proline], for which the “Tautomerase Inhibition pIC50” value was determined as 7.90.

With `COc1cc(N2CCCC(C(=O)O)C2)ccc1C(=O)Nc1nnc(-c2cccs2)o1` (stereo not shown) [Compound 31, 1-(3-methoxy-4-((5-(thiophen-2-yl)-1,3,4-oxadiazol-2-yl)carbamoyl)phenyl)piperidine-3-carboxylic Acid], the “Tautomerase Inhibition pIC50” value amounted to 8.16.

As to `COc1cc(N2CC3CC(C2)O3)ccc1C(=O)Nc1nnc(-c2cccs2)o1` [Compound 33, 4-(6-oxa-3-azabicyclo[3.1.1]heptan-3-yl)-2-methoxy-N-(5-(thiophen-2-yl)-1,3,4-oxadiazol-2-yl)benzamide], the “Tautomerase Inhibition pIC50” value is on record as 7.29.

As to `COc1cc(N2CCOCC2)ccc1S(=O)(=O)Nc1nnc(-c2cncs2)o1` [Compound 35, 2-methoxy-4-morpholino-N-(5-(thiazol-5-yl)-1,3,4-oxadiazol-2-yl)benzenesulfonamide], the “Tautomerase Inhibition pIC50” value is on record as less than 5.

On to `COc1cc(N2CCOCC2)ccc1C(=O)N(C)c1nnc(-c2cncs2)o1` [Compound 36, 2-methoxy-N-methyl-4-morpholino-N-(5-(thiazol-5-yl)-1,3,4-oxadiazol-2-yl)benzamide], for which the “Tautomerase Inhibition pIC50” value is less than 5.

As for `COc1cc(N2CCOCC2)ccc1C(=O)Nc1nnc(-c2cccs2)o1` [Compound 37, 2-methoxy-4-morpholino-N-(5-(thiophen-2-yl)-1,3,4-oxadiazol-2-yl)benzamide], the “Tautomerase Inhibition pIC50” value is 7.44.

Regarding `O=C(NCc1nnc(-c2cccs2)o1)c1ccccc1OC(F)(F)F` [Compound 41, N-((5-(thiophen-2-yl)-1,3,4-oxadiazol-2-yl)methyl)-2-(trifluoromethoxy)benzamide], the “Tautomerase Inhibition pIC50” value is recorded as 1.77.

With `O=C(NCc1nnc(-c2cccs2)o1)c1ccccc1O` [Compound 42, 2-hydroxy-N-((5-(thiophen-2-yl)-1,3,4-oxadiazol-2-yl)methyl)benzamide], the “Tautomerase Inhibition pIC50” value amounted to 3.10.

Turning to `O=C(NCc1nnc(-c2cccs2)o1)c1ccccc1Cl` [Compound 43, 2-chloro-N-((5-(thiophen-2-yl)-1,3,4-oxadiazol-2-yl)methyl)benzamide], the “Tautomerase Inhibition pIC50” value is on record as 5.09.

With `O=C(NCc1nnc(-c2cccs2)o1)c1c(F)cccc1F` [Compound 45, 2,6-difluoro-N-((5-(thiophen-2-yl)-1,3,4-oxadiazol-2-yl)methyl)benzamide], the “Tautomerase Inhibition pIC50” value was less than 5.

In the case of `COc1cnccc1C(=O)NCc1nnc(-c2cccs2)o1` [Compound 47, 3-methoxy-N-((5-(thiophen-2-yl)-1,3,4-oxadiazol-2-yl)methyl)isonicotinamide], the “Tautomerase Inhibition pIC50” value is less than 5.

As for `COc1ncccc1C(=O)NCc1nnc(-c2cccs2)o1` [Compound 48, 2-methoxy-N-((5-(thiophen-2-yl)-1,3,4-oxadiazol-2-yl)methyl)nicotinamide], the “Tautomerase Inhibition pIC50” value is on record as less than 5.

In the case of `O=C(NCc1nnc(-c2cccs2)o1)C1CCCCC1` [Compound 49, N-((5-(thiophen-2-yl)-1,3,4-oxadiazol-2-yl)methyl)cyclohexanecarboxamide], the “Tautomerase Inhibition pIC50” value is less than 5.

Regarding `CN1CCC(C(=O)NCc2nnc(-c3cccs3)o2)CC1` [Compound 50, 1-methyl-N-((5-(thiophen-2-yl)-1,3,4-oxadiazol-2-yl)methyl)piperidine-4-carboxamide], the “Tautomerase Inhibition pIC50” value is on record as less than 5.

For `CCN(Cc1nnc(-c2cccs2)o1)C(=O)c1ccc(N2CCOCC2)cc1OC` [Compound 53, N-ethyl-2-methoxy-4-morpholino-N-((5-(thiophen-2-yl)-1,3,4-oxadiazol-2-yl)methyl)benzamide], the “Tautomerase Inhibition pIC50” value is less than 5.

Consider `COc1c(C(=O)NCc2nnc(-c3cccs3)o2)cccc1N1CCOCC1` [Compound 54, 2-methoxy-3-morpholino-N-((5-(thiophen-2-yl)-1,3,4-oxadiazol-2-yl)methyl)benzamide], for which the “Tautomerase Inhibition pIC50” value is less than 5.

Staying with this test, now noted: read-out: Tautomerase Inhibition pIC50 (converted).
With `COc1cc([C@H]2CC[C@@H](C(=O)O)CC2)ccc1C(=O)Nc1nnc(-c2cccs2)o1` [Compound 27, Cis-4-(3-methoxy-4-((5-(thiophen-2-yl)-1,3,4-oxadiazol-2-yl)carbamoyl)phenyl)cyclohexane-1-carboxylic acid], the IC50 was 18.6 nM.

In the case of `COc1cc([C@H]2CC[C@H](C(=O)O)CC2)ccc1C(=O)Nc1nnc(-c2cccs2)o1` [Compound 28, Trans-4-(3-methoxy-4-((5-(thiophen-2-yl)-1,3,4-oxadiazol-2-yl)carbamoyl)phenyl)cyclohexane-1-carboxylic acid], the IC50 was 38 nM.
